For assay [1], the system named is neuronal cells infected with LV-SYN. The assay is described as follows: neurite outgrowth (MAP2 antibody) in neuronal cells expressing high levels of SYN. Format: cell-based. As to conditions: 0.1 μM; FIG. 6.
Assay [2] has the same test system. The assay is described as follows: FLIPR assay of Ca++ levels (Flou-4) in neuronal cells infected with LV-SYN. Format: cell-based.

With `CCCCNC(=O)C(Cc1c[nH]c2ccccc12)NC(=O)c1cnc(N2CCNCC2)s1` (stereo not drawn) [NPT200-5], the “effect on neurite length extension and cellular morphology” value in assay [1] was “ameliorated the deleterious effects on neurite length extension and improved cellular morphology”. In addition, the “improvement of Ca++ levels” value in assay [2] (0.1 μM concentration) amounted to 50%. In assay [2] (24 hrs treatment, LV-SYN cells showed 25-30% higher Ca++ than empty vector control, FIG. 7), the “levels of Ca++ after treatment” value is “back to baseline”.
